Assay results taken from patent publication US12077503B2, “Substituted cyclic amides and their use as herbicides” (FMC CORPORATION, priority 2015, dated 2024).

What was measured:
Type in all cases: in vivo
[1] = tested on: Kochia (Kochia scoparia); assay: Test A preemergence; conditions: Bassia scoparia, pre-emergence, 240 h, 0 to 100 scale where 0 is no effect and 100 is complete control, read-out: Kochia plant response rating
Method in brief: (§1)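 Visual injury scores from 0, no effect, to 100, complete control, were assigned versus untreated controls roughly 10 d after treatment in the greenhouse. Test chemicals, formulated with surfactant in a non-phytotoxic solvent, were applied to planted seeds as a preemergence soil spray or postemergence to one- to two-leaf plants 2 to 10 cm tall, in loam–sand soil.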

[2] = tested on: barnyardgrass (Echinochloa crus-galli); assay: Test A preemergence; conditions: Echinochloa crus-galli, pre-emergence, 240 h, 0 to 100 scale where 0 is no effect and 100 is complete control, read-out: Barnyardgrass plant response rating
Method in brief: as §1

[3] = tested on: giant foxtail (Setaria faberii); assay: Test A preemergence; conditions: Setaria faberi, pre-emergence, 240 h, 0 to 100 scale where 0 is no effect and 100 is complete control, read-out: Foxtail, Giant plant response rating
Method in brief: as §1

[4] = tested on: pigweed (Amaranthus retroflexus); assay: Test A preemergence; conditions: Amaranthus retroflexus, pre-emergence, 240 h, 0 to 100 scale where 0 is no effect and 100 is complete control, read-out: Pigweed plant response rating
[5] = tested on: ragweed (common ragweed, Ambrosia elatior); assay: Test A preemergence; conditions: Ambrosia artemisiifolia, pre-emergence, 240 h, 0 to 100 scale where 0 is no effect and 100 is complete control, read-out: Ragweed plant response rating
Method in brief: as §1

[6] = tested on: ryegrass, Italian (Italian ryegrass, Lolium multiflorum); assay: Test A preemergence; conditions: Lolium multiflorum, pre-emergence, 240 h, 0 to 100 scale where 0 is no effect and 100 is complete control, read-out: Ryegrass, Italian plant response rating
Method in brief: as §1

[7] = tested on: Galium (catchweed bedstraw, Galium aparine); assay: Test A postemergence; conditions: Galium, post-emergence, 240 h
Method in brief: as §1

[8] = tested on: Kochia (Kochia scoparia); assay: Test A postemergence; conditions: Bassia scoparia, post-emergence, 240 h
Method in brief: as §1

[9] = tested on: barnyardgrass (Echinochloa crus-galli); assay: Test A postemergence; conditions: Echinochloa crus-galli, post-emergence, 240 h
Method in brief: as §1

[10] = tested on: blackgrass (Alopecurus myosuroides); assay: Test A postemergence; conditions: Alopecurus myosuroides, post-emergence, 240 h
Method in brief: as §1

[11] = tested on: corn (Zea mays); assay: Test A postemergence; conditions: Zea mays, post-emergence, 240 h
Method in brief: as §1

[12] = tested on: giant foxtail (Setaria faberii); assay: Test A postemergence; conditions: Setaria faberi, post-emergence, 240 h
Method in brief: as §1

[13] = tested on: pigweed (Amaranthus retroflexus); assay: Test A postemergence; conditions: Amaranthus retroflexus, post-emergence, 240 h
Method in brief: as §1

[14] = tested on: ragweed (common ragweed, Ambrosia elatior); assay: Test A postemergence; conditions: Ambrosia artemisiifolia, post-emergence, 240 h
Method in brief: as §1

[15] = tested on: ryegrass, Italian (Italian ryegrass, Lolium multiflorum); assay: Test A postemergence; conditions: Lolium multiflorum, post-emergence, 240 h
Method in brief: as §1

[16] = tested on: wheat (Triticum aestivum); assay: Test A postemergence; conditions: Triticum aestivum, post-emergence, 240 h
Method in brief: as §1

[17] = tested on: barnyardgrass (Echinochloa crus-galli); assay: Test B flooded paddy test; conditions: Echinochloa crus-galli, 250 g ai/ha, Flood; 0 to 100 scale where 0 is no effect and 100 is complete control; read-out: Barnyardgrass plant response rating
Method in brief: (§2)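 Compound goes directly into floodwater once pots are flooded 3 cm above soil, targeting plants at two leaves; the water depth is then held for the test duration. Plants sit 13–15 d in a greenhouse and are rated visually, 100 denoting complete control.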

[18] = tested on: ducksalad (Heteranthera limosa); assay: Test B flooded paddy test; conditions: Heteranthera limosa, 250 g ai/ha, Flood; 0 to 100 scale where 0 is no effect and 100 is complete control; read-out: Ducksalad plant response rating
Method in brief: as §2

[19] = tested on: rice (Oryra sativa); assay: Test B flooded paddy test; conditions: Oryza sativa, 250 g ai/ha, Flood; 0 to 100 scale where 0 is no effect and 100 is complete control; read-out: Rice plant response rating
Method in brief: as §2

[20] = tested on: sedge, umbrella (small-flower umbrella sedge, Cyperus difformis); assay: Test B flooded paddy test; conditions: Cyperus difformis, 250 g ai/ha, Flood; 0 to 100 scale where 0 is no effect and 100 is complete control; read-out: Sedge, Umbrella plant response rating
Method in brief: as §2

[21] = 125 g ai/ha, preemergence, approx. 10 d

CN1C[C@H](c2cccc(C(F)(F)F)c2)[C@@H](C(=O)Nc2ccccc2CCO)C1=O (racemic) [Compound 1162] showed a pest or weed control at 31 g/ha ([1]; 31 g ai/ha, Preemergence) of 0%, a pest or weed control at 125 g/ha [1, 21] of 0% and a pest or weed control at 31 g/ha ([2]; 31 g ai/ha, Preemergence) of 40%. It also gave a pest or weed control at 125 g/ha [2, 21] of 90%, a pest or weed control at 31 g/ha ([3]; 31 g ai/ha, Preemergence) of 50% and a pest or weed control at 125 g/ha [3, 21] of 90%. For the same compound, the pest or weed control at 31 g/ha ([4]; 31 g ai/ha, Preemergence) was 0%, the pest or weed control at 125 g/ha [4, 21] was 0% and the pest or weed control at 31 g/ha ([5]; 31 g ai/ha, Preemergence) was 0%. The pest or weed control at 125 g/ha [5, 21] was 0%, the pest or weed control at 31 g/ha ([6]; 31 g ai/ha, Preemergence) was 0% and the pest or weed control at 125 g/ha [6, 21] was 20%. It also gave a pest or weed control at 125 g/ha ([7]; 125 g ai/ha, postemergence, visual injury vs untreated controls after approx. 10 d, 0 = no effect, 100 = complete control, read-out: Galium plant response rating (0 to 100 scale)) of 50%, a pest or weed control at 31 g/ha ([7]; Postemergence, 31 g ai/ha, visual injury after approx. 10 d, 0 to 100 scale, 0 no effect, 100 complete control, read-out: Plant response rating, Galium) of 0% and a pest or weed control at 125 g/ha ([8]; 125 g ai/ha, postemergence, visual injury vs untreated controls after approx. 10 d, 0 = no effect, 100 = complete control, read-out: Kochia plant response rating (0 to 100 scale)) of 0%. It also gave a pest or weed control at 31 g/ha ([8]; Postemergence, 31 g ai/ha, visual injury after approx. 10 d, 0 to 100 scale, 0 no effect, 100 complete control, read-out: Plant response rating, Kochia) of 0%, a pest or weed control at 125 g/ha ([9]; 125 g ai/ha, postemergence, visual injury vs untreated controls after approx. 10 d, 0 = no effect, 100 = complete control, read-out: Barnyardgrass plant response rating (0 to 100 scale)) of 60% and a pest or weed control at 31 g/ha ([9]; Postemergence, 31 g ai/ha, visual injury after approx. 10 d, 0 to 100 scale, 0 no effect, 100 complete control, read-out: Plant response rating, Barnyardgrass) of 30%. It also gave a pest or weed control at 125 g/ha ([10]; 125 g ai/ha, postemergence, visual injury vs untreated controls after approx. 10 d, 0 = no effect, 100 = complete control, read-out: Blackgrass plant response rating (0 to 100 scale)) of 0%, a pest or weed control at 31 g/ha ([10]; Postemergence, 31 g ai/ha, visual injury after approx. 10 d, 0 to 100 scale, 0 no effect, 100 complete control, read-out: Plant response rating, Blackgrass) of 0% and a plant injury at 125 g/ha ([11]; 125 g ai/ha, postemergence, visual injury vs untreated controls after approx. 10 d, 0 = no effect, 100 = complete control, read-out: Corn plant response rating (0 to 100 scale)) of 0%. For the same compound, the Corn plant response rating (crop injury, 0 = no effect, 100 = complete kill) at 31 g/ha ([11]; Postemergence, 31 g ai/ha, visual injury after approx. 10 d, 0 to 100 scale, 0 no effect, 100 complete control) was 0%, the pest or weed control at 125 g/ha ([12]; 125 g ai/ha, postemergence, visual injury vs untreated controls after approx. 10 d, 0 = no effect, 100 = complete control, read-out: Foxtail, Giant plant response rating (0 to 100 scale)) was 40% and the pest or weed control at 31 g/ha ([12]; Postemergence, 31 g ai/ha, visual injury after approx. 10 d, 0 to 100 scale, 0 no effect, 100 complete control, read-out: Plant response rating, Foxtail, Giant) was 30%. The pest or weed control at 125 g/ha ([13]; 125 g ai/ha, postemergence, visual injury vs untreated controls after approx. 10 d, 0 = no effect, 100 = complete control, read-out: Pigweed plant response rating (0 to 100 scale)) was 0%, the pest or weed control at 31 g/ha ([13]; Postemergence, 31 g ai/ha, visual injury after approx. 10 d, 0 to 100 scale, 0 no effect, 100 complete control, read-out: Plant response rating, Pigweed) was 0% and the pest or weed control at 125 g/ha ([14]; 125 g ai/ha, postemergence, visual injury vs untreated controls after approx. 10 d, 0 = no effect, 100 = complete control, read-out: Ragweed plant response rating (0 to 100 scale)) was 0%. The pest or weed control at 31 g/ha ([14]; Postemergence, 31 g ai/ha, visual injury after approx. 10 d, 0 to 100 scale, 0 no effect, 100 complete control, read-out: Plant response rating, Ragweed) was 0%, the pest or weed control at 125 g/ha ([15]; 125 g ai/ha, postemergence, visual injury vs untreated controls after approx. 10 d, 0 = no effect, 100 = complete control, read-out: Ryegrass, Italian plant response rating (0 to 100 scale)) was 0% and the pest or weed control at 31 g/ha ([15]; Postemergence, 31 g ai/ha, visual injury after approx. 10 d, 0 to 100 scale, 0 no effect, 100 complete control, read-out: Plant response rating, Ryegrass, Italian) was 0%. For the same compound, the plant injury at 125 g/ha ([16]; 125 g ai/ha, postemergence, visual injury vs untreated controls after approx. 10 d, 0 = no effect, 100 = complete control, read-out: Wheat plant response rating (0 to 100 scale)) was 20%, the plant injury at 31 g/ha ([16]; Postemergence, 31 g ai/ha, visual injury after approx. 10 d, 0 to 100 scale, 0 no effect, 100 complete control, read-out: Plant response rating, Wheat) was 0% and the pest or weed control at 250 g/ha [17] was 35%. The pest or weed control at 250 g/ha [18] was 80%, the pest or weed control at 250 g/ha [19] was 15% and the pest or weed control at 250 g/ha [20] was 0%.
